# Results from patent US12011445B2, “Prevention of pancreatic cell degeneration” (Melior Pharmaceuticals I, Inc., priority 2010, dated 2024).
# “Also recorded” adds a separate entry of the source.
# Legend:
# [1] = Oral glucose tolerance test; assay type: in vivo, mice; conditions: for blood glucose levels at all time points after administration: P<0.05
# Method: Glucose was formulated in water at a concentration of 150 mg/ml and dosed at a volume of 10 ml/kg to produce a dose of 1.5 g/kg. Glucose was measured using the Ascensia II Elite XL glucose monitor ([…]). Measure glucose by taking a small (2 mm) section off the tip of the tail, bleed onto glucose test strip and measure. Data for each time point analyzed by ANOVA and post-hoc Tukey's test. A p value of less then 0.05 was used to indicate statistical significance. […]
# In study 1, mice were dosed with Compound 102 and glucose as follows:
# In study 2, mice were dosed with Compound 102 and glucose as follows.
# Study 3 tested Compound 102 and was conducted as follows: […]
# [2] = Western Diet study (weight, food intake, fat pads); assay type: in vivo, Male CD1/ICR mice
# Description: Male CD1/ICR mice were obtained from Harlan. The study was started when mice were 8 weeks of age. Prior to initiation of the study mice fasted for 24 hrs. Mice were fed “Western Diet” that was designed to approximate the “typical” human diet of North America and Europe (Research Diets; New Brunswick, N.J.; Western Diet composition). The Western Diet contained greater then 5 times more fat then normal chow. [table] Mice were weighed daily beginning from the start of the 24 hr fasting period. Food intake was monitored continuously. Mice were bled by retroorbital eyebleed on days 7, 14, 21 and 28 after the initiation of the study. On day of REB mice were dosed 1× with full dose 1 hr prior to bleed. Fat pads were dissected at the end of the study (day 31) weighed and frozen. The following fat pads were dissected: brown, inguinal, axial, mesenteric, renal and epidydimal. Data were averaged and analyzed by ANOVA followed by a post-hoc Tukey's test with a p value of less then 0.05 indicating a statistical difference.
# [3] = tested on: leptin; test: Leptin levels in Western diet treated animals (ELISA); assay type: in vivo, mice; conditions: animals fed a western diet
# Method: Blood from mice that were on western diet (Compound 102) were analyzed for leptin levels. Mice were bled by retroorbital eyebleed on days 7, 14, 21 and 28 after the initiation of the study. On day of REB mice were dosed once with full dose 1 hr prior to bleed. Leptin levels were determined by ELISA (R&D Systems) as per directions. Data are expressed as the average±SEM. Data were averaged and analyzed by ANOVA followed by a post-hoc Tukey's test with a p value of less then 0.05 indicating a statistical difference.
# [4] = tested on: Db/Db mice; test: In vivo Db/Db mouse study; conditions: for acute blood glucose response: upon study initiation and on weekly blood glucose testing
# Method: Db/Db and Db/lean mice were obtained from Harlan at 6 weeks of age. Mice were housed 3 per cage and fed ad libitum normal rodent chow. Mice were kept on a 12 hr Light:dark cycle.
# The study was initiated when mice reached an age of 8 weeks and their baseline blood glucose levels were greater than 200 mg/dl. Compound 102 was formulated in PBS: 2N HCl (99:1) at concentrations of 0.5, 1.5 and 5 mg/ml. Mice were dosed at volumes of 10 ml/kg to produce doses of 5, 15 and 50 mg/kg/dose. Mice were dosed twice per day at an 8 hr interval (8 am and 4 pm) during the light cycle.
# For the acute blood glucose measurements, blood glucose levels were measured after the animals received their first dose of Compound 102. Blood glucose levels were measured two hours after this initial injection.
# Mice were administered vehicle or drug (i.e., Compound 102) (5, 15, and 50 mg/kg) twice per day (bid) for the 28 days. Mouse weight and food intake were monitored daily. Food intake is reported as food intake (grams) per mouse per 24 hr period.
# [5] = tested on: Zucker rats; test: In vivo Zucker rat study (oral glucose challenge); conditions: 30 mg/kg ip; glucose 1.5 g/kg; 30 and 270 minutes after administration
# Method: Zucker rats and corresponding lean rats were supplied by Harlan. Rats were fed a normal diet, ad libitum, and kept on a 12 hr light/dark cycle. Rats were housed 3 per cage. At 12 weeks of age, Zucker rats were administered Compound 102 at a concentration of 30 mg/kg (ip). Blood glucose levels were measured 30 minutes after administration. Forty-five minutes after drug administration, animals were administered a glucose solution (1.5 g/kg) by oral gavage. Blood glucose levels were measured every 30 minutes after gavage for 4.5 hrs. There were 3 groups with 3 animals per group: 1) 3 Zucker leans (no drug; no glucose treatment); 2) Zucker vehicle treated group (glucose challenged and 3) Zucker Compound 102 treatment (30 mg/kg); glucose challenged.
# [6] = tested on: Db/Db mice; test: Blood glucose and serum insulin levels in db/db mice, 56 days; assay type: in vivo
# Method: Blood glucose levels were measured once per week and serum insulin levels measured at the beginning and at the end of the study.
# [7] = tested on: pancreatic β-cells; test: Pancreatic β-cell degeneration in db/db mice (insulin antibody staining of pancreas); assay type: in vivo
# Method: Db/db mice were administered Compound 102 (100 mg/kg) for 60 days. At the end of the treatment period, pancreases were removed, post-fixed, sectioned and stained with insulin antibody to visualize pancreatic β-cells. Vehicle treated db/db mice expressed dramatically less insulin staining than lean control mice.
# [8] = study 1, single administration, 30 mg/kg
# [9] = Western diet, fat pads dissected day 31
# [10] = IP, twice/day, four weeks, 5, 15 and 50 mg/kg
# [11] = chronic treatment, histology, vs untreated controls, FIG. 2
smiles,measurement,setting,value
O=c1ncc(Oc2cccc(Cl)c2)c[nH]1 [Compound 105],baseline blood glucose levels,[1]; data not shown,significantly depressed
same,blood glucose levels,"[1]; oral glucose tolerance test, overall statement",dramatic reductions
same,blood glucose levels at all time points after administration,[1]; single dose 2 mg/kg,significantly (P<0.05) reduced
same,blood glucose levels at all time points after administration,[1]; single dose 10 mg/kg,significantly (P<0.05) reduced
Cc1cccc(Oc2cnc(=O)[nH]c2)c1 [Compound 102],blood glucose levels produced by oral glucose administration,[1]; [8],significantly attenuated
same,normal blood glucose levels (pre-glucose loading),[1]; [8],significantly decreased
same,time after drug administration at which significance was lost,[1]; [8],90 min
same,effect on blood glucose levels,"[1]; study 2, increased dosing",more dramatic effect
same,food intake,[2]; Western / high fat diet fed mice,not affected; also recorded: independent of an effect on food intake; also recorded: normal food intake
same,"brown, axial, inguinal, renal and epipdydimal fat pad increases",[2]; [9],significantly reduced
same,mesenteric fat pad levels,[2]; [9],not
same,weight gain,"[2]; Western diet, highest dose tested (30 mg/kg/day), absolute weight and weight change from day 0",significantly reduced
same,defecation,"[2]; chronic administration, high fat diet",defecated normally
same,hyperactivity normally associated with the amphetamine class of weight-loss drugs,"[2]; mouse, in vivo",did not display the hyperactivity
same,"animals fed a western diet and treated, compared with normal diet (weight gain, food intake, fat pad development, leptin)",[2]; summary of Examples 2 and 3,do not look different from those fed a normal diet
same,weight change / weight-gain response,"[2]; western (high fat) diet fed animals, chronic administration, dose not stated",significant alteration; also recorded: significantly inhibited
same,fat pad development,[2]; western diet fed animals,reduction in fat pad development
same,blood leptin levels,[3],reduced leptin levels to those fed a normal diet
same,acute blood glucose response,[4]; 15 mg/kg dose group,acute dose response
same,acute blood glucose response,[4]; 50 mg/kg dose group,acute dose response
same,effect on animal weight gain,[4]; [10],dose dependent effect
same,effect on blood glucose levels,[4]; [10],dose dependent effect
same,blood glucose levels following acute administration,[4]; measured two hours after first dose,reduce blood glucose levels
same,blood glucose levels after oral glucose administration,[5],reduced blood glucose levels at both time points
same,serum insulin levels,"[6]; 30 mg/kg daily for 56 days, beginning vs end of study, FIG. 1",significantly slowed the loss; also recorded: prevention of the loss of serum insulin levels
same,blood glucose levels,"[6]; 30 mg/kg daily for 56 days, measured once per week, FIG. 1",attenuated the progressive rise; also recorded: decrease in blood glucose
same,extent of serum insulin lowering associated with pancreatic β-cell loss,"[6]; db/db mice, compared among Compound 102, vehicle and rosiglitazone",do not exhibit the extent of serum insulin lowering
same,insulin staining of pancreas sections,[7]; 100 mg/kg for 60 days,significantly higher levels of insulin staining than vehicle treated mice
same,islet insulin content,[7]; [11],increased insulin content
same,islet structure,[7]; [11],better preserved islet structure
same,pancreatic β-cell degeneration,"[7]; db/db mice, FIG. 2",prevents β-cell degeneration; also recorded: prevention of pancreatic β-cell degeneration
